Results from patent EP4566597A1, “STATINS USEFUL IN THE TREATMENT OF SPLACHNIC VASCULAR DYSFUNCTIONS” (Hospital Clínic de Barcelona, priority 2023, dated 2025).

How the values were obtained:
PVECs = assay: qPCR of EndMT markers in PVECs treated in vitro with Simvastatin; format: cell-based, human; settings: 5 µM Simvastatin sodium salt, 24 h
Method: For portal vein endothelia cell (PVEC) isolation, excess surrounding fat tissue was meticulously removed from the vein using sterile scissors, and any residual blood was washed away with DPBS. Subsequently, the tubular vein was opened to expose the inner part of the vein facing upward. Trypsin EDTA 0,05% (Gibco, #25300054) was then added on the upper surface and incubated for 5 minutes at 37°C. EGM-2 medium was then added abundantly over the tissue and a cell scrapper (TPP-Reactiva, #99002) was used to carefully scrap the surface of the inner wall several times, in order to detach the endothelial cells from the vein wall. The EGM-2 medium with cells in suspension was then centrifuged at 300 g for 5 minutes and pellet resuspended in 2 ml of fresh EGM-2. Cells were then seeded in a well from a 6-well plate pre-coated with human plasma fibronectin at a concentration of 1 µg/cm^2 (Sigma, #F0895), and fresh media changed every other day until confluence. On average, confluence was reached 10 days after isolation.
In order to isolate PVECs from other cell types that were also scrapped during the initial tissue processing, cells were detached, stained with anti-CD31-FITC (BD Bioscience, #555445) and CD144 -BV786 (BD Bioscience, #565672) antibodies and FACS sorted in a FACS Aria II cell sorter (BD Biosciences) according to manufacturer's instructions. PVECs were selected as CD31^+ CD144^+ cells and seeded back to either a 6-well plate, T25 or T75 flasks, depending on the cell amount obtained. Once ECs reached confluency, a third of the cells were collected in RLT buffer (Qiagen) for subsequent RNA isolation (passage 1), a third was used for flow cytometry purity analysis and the final one third was passaged into a new 6-well plate. From this moment onwards, […] portal vein endothelial cells (PVECs) were expanded at a split ratio of 1:5 until senescence. At every passage, a fraction of the cells was cryopreserved for future experiments, while the rest was used for flow cytometry purity check, RLT collection and tube assays. Endothelial phenotype of PVECs was routinely monitored by cell morphology, flow cytometry, immunofluorescence and tube formation capacity.
(§1) PVECs were seeded in 6-well plates in triplicates (for RNA collection) and in 60mm dishes (for protein collection) at a concentration of 6x10^4 cells/ml and grow for 24 h to obtain 70% confluency. PVECs from CT (n=3), CH (n=7) and CH-PVT (n=6) were then treated in vitro with 5 µM Simvastatin sodium salt (Sigma, #567022) for another 24 h and collected in either RLT or RIPA buffer for further analysis by means of quantitative real-time polymerase chain reaction (qPCR) or Western blotting, respectively. Its effect on mesenchymal markers and EndMT promoters, including TFs and all the molecules involved in EndMT initiation or progression previously described, was studied.
Total RNA was isolated by RNeasy Micro and Mini kit (Qiagen) as stated above. First-strand cDNA was synthesized using the High Capacity cDNA Reverse Transcription Kit (Applied, Thermo Fisher, #4368814) according to the manufacturer's instructions. Quantitative real-time PCR (qPCR) was performed using PowerUp™ sybr® Green Master Mix (Applied Biosystems, #A25776) with technical duplicates using an AB1 Prism® 7900 HT Cycler (Applied Biosystems). PCR cycle parameters were as follows: 95 °C for 10' followed by 40 cycles at 95 °C for 15" and 60 °C for 1'. Results were obtained with the Sequence Detection System 3.2 software (Applied Biosystems) and further analyzed by the 2-ΔΔCt method. GAPDH was used as a loading control. Results are shown as fold-change.

phosphor-SMAD2 = assay: Western blot of PVECs treated in vitro with simvastatin; format: cell-based, human; settings: FIG. 10
Method: as §1
Proteins were extracted with RIPA buffer complemented with Halt Protease & Phosphatase inhibitors (ThermoFisher) and total protein estimated using Bradford's Reagent (Bio-Rad) following manufacturer's instructions. […] Extracted proteins were analyzed by western blot. […] Images were acquired with a LAS-4000 apparatus (Fujifilm, TDI, Alcobendas, Spain) and protein expression was determined by densitometric analysis using the Image Studio Lite software (LI-COR). Results are expressed as relative densitometric values normalized to endogenous control β-actin. […]

[1] = PVECs from CT, CH and CH-PVT, qPCR, FIG. 9
[2] = PVEC from cirrhotic patients with or without PVT, qPCR

Q: How did the “endothelial markers expression (Cd31)” value (PVECs; [1]) turn out when CCC(C)(C)C(=O)O[C@H]1C[C@@H](C)C=C2C=C[C@H](C)[C@H](CC[C@@H]3C[C@@H](O)CC(=O)O3)[C@H]21 [Simvastatin, [(1S,3R,7S,8S,8aR)-8-[2-[(2R,4R)-4-hydroxy-6-oxooxan-2-yl]ethyl]-3,7-dimethyl-1,2,3,7,8,8a-hexahydronaphthalen-1-yl] 2,2-dimethylbutanoate] was run?
A: increasing

Q: What about the “endothelial markers expression (NOs3)” value (PVECs; [1]) of the same compound?
A: increasing

Q: What about the “expression of mesenchymal markers (AIFM2)” value (PVECs; [2]) of the same compound?
A: reduced

Q: What about the “expression of mesenchymal markers (CDH2)” value (PVECs; [2]) of the same compound?
A: reduced

Q: What about the “expression of the adhesion molecule VCAM1” value (PVECs; [2]) of the same compound?
A: reduced

Q: What about the “EndMT occurring in PVEC” value (PVECs; overall finding, FIG. 9) of the same compound?
A: can ameliorate

Q: What about the “GTPase (Rac2) expression” value (PVECs; qPCR) of the same compound?
A: decreasing

Q: And the Serpine1 expression (PVECs; qPCR)?
A: decreasing

Q: What about the “expression of transcription factor Snail1” value (PVECs; qPCR) of the same compound?
A: reduced

Q: And the phosphor-SMAD2 protein levels (phosphor-SMAD2)?
A: capable of reducing
